{"source": "patent US20160320414A1", "about": "“Assay for Detection of Transient Intracellular CA2+” (Rajiv Gandhi Centre for Biotechnology, priority 2007, published 2016)", "format_in_all_cases": "cell-based", "key": {"[1]": {"target": "T1, NMDA receptor formed of NR1 and NR2B subunits (Rattus norvegicus, UniProt P35439+Q00960)", "T1 construct": "expressed in transfected cells; host or cells: HEK-293", "T1 sequence (Q00960 27-1482, other chains not shown)": "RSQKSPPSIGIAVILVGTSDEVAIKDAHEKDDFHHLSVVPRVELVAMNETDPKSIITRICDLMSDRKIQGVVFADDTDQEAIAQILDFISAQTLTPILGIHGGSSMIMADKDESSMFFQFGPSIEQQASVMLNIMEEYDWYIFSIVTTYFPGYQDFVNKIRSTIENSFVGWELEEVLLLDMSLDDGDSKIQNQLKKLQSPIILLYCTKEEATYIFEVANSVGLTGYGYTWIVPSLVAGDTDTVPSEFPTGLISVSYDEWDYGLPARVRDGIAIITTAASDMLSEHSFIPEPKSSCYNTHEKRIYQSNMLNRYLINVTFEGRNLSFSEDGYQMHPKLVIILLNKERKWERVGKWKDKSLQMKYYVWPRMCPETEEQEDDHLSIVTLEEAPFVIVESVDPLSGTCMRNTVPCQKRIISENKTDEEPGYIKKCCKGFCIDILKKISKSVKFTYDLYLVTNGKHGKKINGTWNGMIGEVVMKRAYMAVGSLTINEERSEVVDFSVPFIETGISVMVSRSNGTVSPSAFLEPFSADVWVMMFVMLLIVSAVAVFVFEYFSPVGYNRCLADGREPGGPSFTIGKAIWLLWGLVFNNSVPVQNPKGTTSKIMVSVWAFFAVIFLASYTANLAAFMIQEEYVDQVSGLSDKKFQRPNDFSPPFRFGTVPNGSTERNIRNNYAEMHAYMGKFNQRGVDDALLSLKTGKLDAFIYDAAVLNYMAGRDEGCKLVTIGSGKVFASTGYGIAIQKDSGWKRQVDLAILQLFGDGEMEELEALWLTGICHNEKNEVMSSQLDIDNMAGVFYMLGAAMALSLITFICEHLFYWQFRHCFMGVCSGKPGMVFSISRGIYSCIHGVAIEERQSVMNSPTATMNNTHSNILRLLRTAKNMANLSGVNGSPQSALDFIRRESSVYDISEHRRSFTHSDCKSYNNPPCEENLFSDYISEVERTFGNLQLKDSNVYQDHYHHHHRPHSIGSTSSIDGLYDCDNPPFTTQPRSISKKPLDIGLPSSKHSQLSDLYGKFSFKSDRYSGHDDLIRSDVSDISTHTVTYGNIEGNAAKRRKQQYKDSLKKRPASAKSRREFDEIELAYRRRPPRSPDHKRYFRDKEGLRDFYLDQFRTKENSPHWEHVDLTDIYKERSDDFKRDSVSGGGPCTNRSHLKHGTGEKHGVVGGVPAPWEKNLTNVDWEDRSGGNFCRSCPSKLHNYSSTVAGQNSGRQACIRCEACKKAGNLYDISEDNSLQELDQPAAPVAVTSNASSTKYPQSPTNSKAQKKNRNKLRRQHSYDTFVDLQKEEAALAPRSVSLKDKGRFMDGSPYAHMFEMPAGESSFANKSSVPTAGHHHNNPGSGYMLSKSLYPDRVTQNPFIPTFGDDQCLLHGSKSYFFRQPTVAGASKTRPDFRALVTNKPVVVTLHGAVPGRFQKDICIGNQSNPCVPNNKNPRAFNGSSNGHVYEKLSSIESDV", "assay": "NMDA receptor activity assay (GFP-α-CaMKII translocation signal)", "settings": "HEK-293 cells transfected with NR1, NR2B and GFP-α-CaMKII; for Ca2+ influx / translocation of GFP-α-CaMKII to NR2B upon receptor activation: glutamate 10 μM and glycine 2 μM with 2 mM CaCl2, about 5 minutes, no signal without extracellular Ca2+"}, "[2]": {"target": "T2, vanilloid receptor (TRPV1) (Rattus norvegicus, UniProt O35433)", "T2 construct": "expressed in transfected cells; host or cells: HEK-293", "T2 sequence (O35433 whole entry)": "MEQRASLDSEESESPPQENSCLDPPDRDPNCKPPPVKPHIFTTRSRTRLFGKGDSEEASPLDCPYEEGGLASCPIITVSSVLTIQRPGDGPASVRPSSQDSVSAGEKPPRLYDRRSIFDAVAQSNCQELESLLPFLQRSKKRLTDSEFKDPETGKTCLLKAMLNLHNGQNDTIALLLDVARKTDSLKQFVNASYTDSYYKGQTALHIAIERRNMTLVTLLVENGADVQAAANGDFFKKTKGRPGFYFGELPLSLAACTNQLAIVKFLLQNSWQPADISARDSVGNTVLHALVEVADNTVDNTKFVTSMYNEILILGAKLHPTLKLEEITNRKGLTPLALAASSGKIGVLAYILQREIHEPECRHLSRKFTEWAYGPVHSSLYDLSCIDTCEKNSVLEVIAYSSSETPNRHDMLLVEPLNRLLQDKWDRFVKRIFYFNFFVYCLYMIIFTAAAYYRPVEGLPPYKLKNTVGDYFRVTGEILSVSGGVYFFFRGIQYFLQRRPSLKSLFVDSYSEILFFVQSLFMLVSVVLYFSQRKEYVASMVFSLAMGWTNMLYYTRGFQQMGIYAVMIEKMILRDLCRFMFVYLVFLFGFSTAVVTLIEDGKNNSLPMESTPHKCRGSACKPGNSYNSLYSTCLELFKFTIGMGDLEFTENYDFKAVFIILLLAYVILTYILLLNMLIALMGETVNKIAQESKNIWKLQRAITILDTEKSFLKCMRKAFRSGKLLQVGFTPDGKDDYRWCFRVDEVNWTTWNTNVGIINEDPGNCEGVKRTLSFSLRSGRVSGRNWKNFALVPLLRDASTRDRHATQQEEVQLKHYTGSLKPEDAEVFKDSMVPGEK", "assay": "TRPV1 receptor activity assay (GFP-CaMKII translocation to MLS-NR2B)"}, "MLS-NR2B": {"tested_on": "MLS-NR2B", "assay": "Ionomycin-mediated Ca2+-influx, cell count of cells with GFP-clustering signal", "settings": "HEK-293 cells with MLS-NR2B", "protocol": "For transfection, 1.5×10^4 HEK-293 cells were seeded on sterile 12 mm cover slips in 24 well plates (Nunc). After 24 hrs, the cells were cotransfected with plasmid constructs encoding GFP-α-CaMKII (0.1 μg/well) and either of MLS-NR2A or MLS-NR2B (0.25 μg/well), or pRK-NR2A or pRK-NR2B (along with pRc-NR1 for expression of functional NMDA receptor) using Lipofectamine reagent. About 48 hrs following transfection, cells were washed with Hank's balanced salt solution (HBSS) containing 20 mM HEPES and 1.4 mM EGTA. The cells were then incubated with 15 μM ionomycin in the same buffer for 10 min. Subsequently the cells were incubated in the same buffer containing 2 mM CaCl2 and 3 μM ionomycin. Cells were fixed with 3.7% paraformaldehyde in PBS (Phosphate-buffered saline, 10 mM disodium hydrogen phosphate, 1.8 mM potassium dihydrogen orthophosphate, 140 mM sodium chloride, 2.7 mM potassium chloride, pH adjusted to 7.4) at different time points after addition of calcium, mounted with mountant containing DABCO (antifade) and were observed through either a simple fluorescence microscope or a confocal fluorescence microscope (TCS -SP2-AOBS from Leica).\nAppearance of perinuclear granules due to mitochondrial localization of GFP-α-CaMKII is taken as the signal for binding between GFP-α-CaMKII and MLS-NR2B. […]"}, "[3]": {"target": "T3, AMPA-type glutamate receptor GluR4 (Rattus norvegicus, UniProt P19493)", "T3 construct": "expressed in transfected cells; host or cells: HEK-293", "T3 sequence (P19493 22-902 limits assumed)": "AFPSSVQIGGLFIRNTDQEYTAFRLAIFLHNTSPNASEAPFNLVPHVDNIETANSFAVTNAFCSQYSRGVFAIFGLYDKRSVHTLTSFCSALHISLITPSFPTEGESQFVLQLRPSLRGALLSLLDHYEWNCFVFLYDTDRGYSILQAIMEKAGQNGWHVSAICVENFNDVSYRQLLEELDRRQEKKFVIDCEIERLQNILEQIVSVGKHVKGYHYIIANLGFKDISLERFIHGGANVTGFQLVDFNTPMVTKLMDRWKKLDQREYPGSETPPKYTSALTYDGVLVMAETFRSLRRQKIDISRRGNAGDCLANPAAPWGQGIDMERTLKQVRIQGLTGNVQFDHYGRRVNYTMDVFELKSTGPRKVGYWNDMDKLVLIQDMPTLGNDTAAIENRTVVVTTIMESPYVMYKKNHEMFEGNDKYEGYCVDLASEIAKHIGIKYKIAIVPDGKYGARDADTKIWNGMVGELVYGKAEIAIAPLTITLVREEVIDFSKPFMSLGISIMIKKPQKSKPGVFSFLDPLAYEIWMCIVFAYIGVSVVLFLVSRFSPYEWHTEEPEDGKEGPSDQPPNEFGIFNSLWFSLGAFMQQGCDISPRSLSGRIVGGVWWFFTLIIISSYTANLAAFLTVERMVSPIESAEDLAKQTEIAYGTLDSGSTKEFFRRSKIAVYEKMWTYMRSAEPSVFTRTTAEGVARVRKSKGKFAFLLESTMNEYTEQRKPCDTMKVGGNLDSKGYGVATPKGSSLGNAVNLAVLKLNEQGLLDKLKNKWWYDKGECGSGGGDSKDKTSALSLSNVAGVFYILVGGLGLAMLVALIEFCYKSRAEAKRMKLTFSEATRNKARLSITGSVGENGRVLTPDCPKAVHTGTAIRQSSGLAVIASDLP", "assay": "GluR4 receptor activity assay (GFP-CaMKII translocation to MLS-NR2B)", "protocol": "HEK-293 cells were cotransfected with GluR4 (pRK5-GluR4, about 0.33 μg/well), MLS-NR2B (pSGH-MLS-NR2B, about 0.33 μg/well) and GFP-CaMKII (pEGFP-CaMKII, about 0.1 μg/well) using lipofectamine reagent. During growth, the medium was supplemented with 50 μM CNQX (inhibitor of AMPA receptor). After 48 hours, the transfected cells were subjected to GluR4 activity assay. The growth medium was removed and the cells were washed twice with Ca^2+ and Mg free HBSS containing 2 mM HEPES and 400 μM EGTA. The GluR4 receptor was activated with HBSS solution containing 10 μM glutamate with or without 2 mM Ca^2+ for about 5 minutes. The inhibitor, CNQX (50 μM), when used, was preincubated for 3 minutes with cells in Ca^2+ and Mg^2+-free HBSS followed by activation using the components as described above with 50 μM CNQX. Cells were then fixed and were mounted onto glass slides."}}}
{"compound": "NCC(=O)O", "note": "[glycine]", "values": [{"measurement": "Ca2+ influx / translocation of GFP-α-CaMKII to NR2B upon receptor activation", "setting": "[1]", "result": "caused influx of Ca^2+"}]}
{"compound": "Oc1cc2c(cc1O)CN(C(=S)NCCc1ccc(Cl)cc1)CCC2", "note": "[capsazepine]", "values": [{"measurement": "Signal generation due to activation of TRPV1 in presence of inhibitor", "setting": "[2]; capsazepine 50 μM, preincubated 3 minutes, then capsaicin activation with Ca2+ (FIG. 10)", "result": "could be inhibited"}]}
{"compound": "T286D-CaMKII: T286D mutant form of the GFP fusion of α-CaMKII used as Ca2+ sensor", "values": [{"measurement": "Cell count (percentage of green cells with binding signal) relative to wild-type GFP-α-CaMKII", "setting": "MLS-NR2B; ionomycin-mediated Ca2+ influx (FIG. 5)", "result": "increased (more than two fold) cell count"}, {"measurement": "Lowest extracellular [Ca2+] giving response", "setting": "MLS-NR2B; ionomycin-mediated Ca2+ influx, different extracellular [Ca2+] (FIG. 6)", "result": 2, "unit": "nM"}]}
{"compound": "N#Cc1cc2[nH]c(=O)c(=O)[nH]c2cc1[N+](=O)[O-]", "note": "[CNQX]", "values": [{"measurement": "Generation of the signal in presence of specific inhibitor", "setting": "[3]; CNQX 50 μM, preincubated 3 minutes, then glutamate activation (FIG. 11)", "result": "could be blocked"}]}
{"compound": "C[C@]12N[C@H](Cc3ccccc31)c1ccccc12", "note": "[MK-801]", "values": [{"measurement": "Signal generation in presence of NMDA receptor specific inhibitor", "setting": "[1]; activated with glutamate and glycine, 1 mM AP-5 or 10 μM MK-801", "result": "blocked"}]}
{"compound": "COc1cc(CNC(=O)CCCC/C=C/C(C)C)ccc1O", "note": "[capsaicin]", "values": [{"measurement": "Green punctae as signal for Ca2+-channel activity of TRPV1 upon activation", "setting": "[2]; HEK-293 cells cotransfected with TRPV1, GFP-CaMKII and MLS-NR2B, capsaicin 3 μM or 10 nM with 2 mM Ca2+, 5 minutes", "result": "developed green punctae"}]}
{"compound": "N[C@@H](CCC(=O)O)C(=O)O", "note": "[glutamate]", "values": [{"measurement": "Ca2+ influx / translocation of GFP-α-CaMKII to NR2B upon receptor activation", "setting": "[1]", "result": "caused influx of Ca^2+"}, {"measurement": "Green punctae (translocation of GFP-CaMKII to MLS-NR2B) upon receptor activation", "setting": "[3]; HEK-293 cells transfected with GluR4, GFP-CaMKII and MLS-NR2B, 10 μM glutamate with 2 mM Ca2+, about 5 minutes", "result": "caused the formation of green punctae"}]}
